Where only a bound is given, the exact number is not on record here.

This is an account of results in patent publication US11053253B2, “Macrocyclic compounds for treatment of medical disorders” (Achillion Pharmaceuticals, Inc., priority 2017, dated 2021).

Chain of Human Factor D (P00746 26-253): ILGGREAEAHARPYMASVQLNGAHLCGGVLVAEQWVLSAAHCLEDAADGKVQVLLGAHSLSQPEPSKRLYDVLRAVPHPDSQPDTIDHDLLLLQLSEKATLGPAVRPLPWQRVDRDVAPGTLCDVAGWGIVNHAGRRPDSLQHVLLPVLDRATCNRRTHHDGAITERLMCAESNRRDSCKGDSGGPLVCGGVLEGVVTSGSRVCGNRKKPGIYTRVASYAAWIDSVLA

The test deals with Human Factor D (Homo sapiens (Human), UniProt P00746). The test can be described thus: Human Factor D Assay. The class given is biochemical. Particulars: Human Factor D 80 nM, substrate Z-L-Lys-SBzl, DTNB, A405; read-out: IC50 (Stars). As for the experimental part:
Example 2. Human Factor D Assay
Human Factor D (purified from human serum, Complement Technology, Inc.) at 80 nM final concentration is incubated with test compound at various concentrations for 5 min at room temperature in 50 mM Tris, 1M NaCl, pH 7.5. A synthetic substrate Z-L-Lys-SBzl and DTNB (Ellman's reagent) are added to final concentrations of 100 µM each. Absorbance at 405 nm (A405) is recorded at 30 second intervals for 30 minutes using a microplate spectrophotometer. IC50 values are calculated by nonlinear regression of Complement Factor D reaction rates as a function of test compound concentration.
Consider `CC(=O)c1nn2c3c(cc(-c4cnc(C)nc4)cc13)CCCCCCC(=O)NC[C@@]13C[C@@H](C(=O)Nc4nc(Br)c(F)cc4C)N(C(=O)C2)[C@@H]1C3` [Compound T-85], for which the IC50 (commonly the concentration that gives 50% inhibition) was less than 1000 nM. Take `CC(=O)c1nn2c3c(cc(-c4cnc(C)nc4)cc13)CCCCCCC(=O)NC[C@@]13C[C@@H](C(=O)NCc4cccc(Cl)c4F)N(C(=O)C2)[C@@H]1C3` [Compound T-86]: the IC50 is less than 1000 nM. With `CC(=O)c1nn(CC(=O)N2[C@H]3C[C@@]4(CCCCCCCOCc5ccc(Br)nc5NC3=O)C[C@@H]24)c2c(CF)cc(-c3cnc(C)nc3)cc12` [Compound T-87], the IC50 was less than 1000 nM. For the compound `CC(=O)c1nn(CC(=O)N2[C@H]3C[C@@]4(CCCCCCCOCc5ccc(Br)nc5NC3=O)C[C@@H]24)c2cnc(-c3cnc(C)nc3)cc12` [Compound T-88], the IC50 is less than 1000 nM. As to `CC(=O)c1nn(CC(=O)N2[C@H]3C[C@@]4(CCCC=CCOCc5ccc(Br)nc5NC3=O)C[C@@H]24)c2c(CF)cc(-c3cnc(C)nc3)cc12` [Compound T-89], the IC50 is less than 1000 nM. On to `CC(=O)c1nn2c3c(cc(-c4cnc(C)nc4)cc13)CCCCCCC(=O)NC[C@@]13C[C@@H](C(=O)Nc4cc(F)cc(Br)n4)N(C(=O)C2)[C@@H]1C3` [Compound T-90], for which the IC50 is less than 1000 nM. Take `CC(=O)c1nn2c3c(cc(-c4cnc(C)nc4)cc13)CC=CCCCC(=O)NC[C@@]13C[C@@H](C(=O)Nc4ccn(CC(F)(F)F)n4)N(C(=O)C2)[C@@H]1C3` [Compound T-91]: the IC50 was less than 1000 nM.

As for `CC(=O)c1nn2c3c(cc(-c4cnc(C)nc4)cc13)CCCCCCC(=O)NC[C@@]13C[C@@H](C(=O)Nc4ccn(CC(F)(F)F)n4)N(C(=O)C2)[C@@H]1C3` [Compound T-92], the IC50 is less than 1000 nM. `CC(=O)c1nn2c3c(cc(-c4cnc(C)nc4)cc13)CCCCCCC(=O)N(C)C[C@@]13C[C@@H](C(=O)Nc4nc(C(F)(F)F)ccc4C)N(C(=O)C2)[C@@H]1C3` [Compound T-93]: the IC50 is less than 1000 nM.

In the case of `CC(=O)c1nn2c3c(cc(-c4cnc(C)nc4)cc13)CC=CCCCC(=O)NC[C@@]13C[C@@H](C(=O)NCc4cccc(Cl)c4)N(C(=O)C2)[C@@H]1C3` [Compound T-94], the IC50 was less than 1000 nM.

Turning to `CC(=O)c1nn2c3c(cc(-c4cnc(C)nc4)cc13)CCCCCCC(=O)NC[C@@]13C[C@@H](C(=O)NCc4cccc(Cl)c4)N(C(=O)C2)[C@@H]1C3` [Compound T-95], the IC50 was less than 1000 nM. Take `CC(=O)N[C@@H]1CC=CCOCc2ccc(Br)nc2NC(=O)[C@@H]2C[C@]3(C[C@H]3N2C(=O)Cn2nc(C(C)=O)c3cc(-c4cnc(C)nc4)ccc32)CN(C)C1=O` [Compound T-96]: the IC50 is less than 1000 nM.

On to `CC(=O)c1nn(CC(=O)N2[C@H]3C[C@@]4(CCCCCCCN(C)Cc5ccc(Br)nc5NC3=O)C[C@@H]24)c2c(CF)cc(-c3cnc(C)nc3)cc12` [Compound T-97], for which the IC50 was less than 1000 nM. Consider `CC(=O)c1nn(CC(=O)N2[C@H]3C[C@@]4(CCCCCCCN(C)Cc5ccc(Br)nc5NC3=O)C[C@@H]24)c2cnc(-c3cnc(C)nc3)cc12` [Compound T-98], for which the IC50 was less than 1000 nM. For the compound `CC(=O)c1nn2c3cc(c(-c4cnc(C)nc4)cc13)OCCCCCCCCCC[C@@]13C[C@@H](C(=O)Nc4nc(Br)ccc4C)N(C(=O)C2)[C@@H]1C3` [Compound T-99], the IC50 is less than 1000 nM. Turning to `CC(=O)c1nn2c3cc(c(-c4cnc(C)nc4)cc13)OCCCCCCCCC[C@@]13C[C@@H](C(=O)Nc4nc(Br)ccc4C)N(C(=O)C2)[C@@H]1C3` [Compound T-100], the IC50 is less than 1000 nM. For the compound `CC(=O)c1nn2c3c(cc(-c4cnc(C)nc4)cc13)CCCCC=CCOC[C@@]13C[C@@H](C(=O)Nc4nc(C(F)(F)F)ccc4C)N(C(=O)C2)[C@@H]1C3` [Compound T-101], the IC50 was less than 1000 nM.

As to `CC(=O)c1nn2c3c(cc(-c4cnc(C)nc4)cc13)CCCCCCCOC[C@@]13C[C@@H](C(=O)Nc4nc(C(F)(F)F)ccc4C)N(C(=O)C2)[C@@H]1C3` [Compound T-102], the IC50 was less than 1000 nM. `CC(=O)N[C@H]1CC=CCOCc2ccc(Br)nc2NC(=O)[C@@H]2C[C@]3(C[C@H]3N2C(=O)Cn2nc(C(C)=O)c3cc(-c4cnc(C)nc4)ccc32)CN(C)C1=O` [Compound T-103]: the IC50 is less than 1000 nM. In the case of `CC(=O)c1nn(CC(=O)N2[C@H]3C[C@]4(C[C@@H]24)Cn2ccc(n2)C=CCCC(F)(F)c2ccc(Br)nc2NC3=O)c2ccc(-c3cnc(C)nc3)cc12` [Compound T-104] it was less than 1000 nM; in that of `CC(=O)c1nn(CC(=O)N2[C@H]3C[C@]4(C[C@@H]24)Cn2ccc(n2)C=CCCC(F)(F)c2ccc(Br)nc2NC3=O)c2cnc(-c3cnc(C)nc3)cc12` [Compound T-105], less than 1000 nM; in that of `CC(=O)c1nn(CC(=O)N2C[C@@]3(F)COCCCCCCCc4ccc(Br)nc4NC(=O)[C@@H]2C3)c2ccc(-c3cnc(C)nc3)cc12` [Compound T-106], less than 1000 nM. Take `CC(=O)c1nn(CC(=O)N2C[C@@]3(F)COCCCCCCCc4ccc(Br)nc4NC(=O)[C@@H]2C3)c2c(C)nc(-c3cnc(C)nc3)cc12` [Compound T-107]: the IC50 was less than 1000 nM.

Regarding `CC(=O)c1nn2c3c(cc(-c4cnc(C)nc4)cc13)CCCCCCCOC[C@@]13C[C@@H](C(=O)Nc4nc(Br)ccc4C)N(C(=O)C2)[C@@H]1C3` [Compound T-108], the IC50 was less than 1000 nM.

With `CC(=O)c1nn2c3c(cc(-c4cnc(C)nc4)cc13)CCCCCCCCCC[C@@]13C[C@@H](C(=O)Nc4nc(Br)ccc4C)N(C(=O)C2)[C@@H]1C3` [Compound T-109], the IC50 is less than 1000 nM. Consider `CC(=O)c1nn(CC(=O)N2[C@H]3C[C@]4(C[C@@H]24)CN(C)CCCCCCCc2ccc(Br)nc2NC3=O)c2ccc(-c3cnc(C)nc3)cc12` [Compound T-110], for which the IC50 was less than 1000 nM. With `CC(=O)c1nn2c3c(cc(-c4cnc(C)nc4)cc13)CCCCCCCCC[C@@]13C[C@@H](C(=O)Nc4nc(Br)ccc4C)N(C(=O)C2)[C@@H]1C3` [Compound T-111], the IC50 was less than 1000 nM. With `CC(=O)c1nn(CC(=O)N2[C@H]3C[C@@]4(CNC(=O)C(C)(C)C=CCOCc5ccc(Br)nc5NC3=O)C[C@@H]24)c2cnc(-c3cnc(C)nc3)cc12` [Compound T-112], the IC50 is less than 1000 nM.

In the case of `CC(=O)c1nn(CC(=O)N2[C@H]3C[C@@]4(Cc5nc(no5)C=CCOCc5ccc(Br)nc5NC3=O)C[C@@H]24)c2c(C)cc(-c3cnc(C)nc3)cc12` [Compound T-113], the IC50 is less than 1000 nM. In the case of `CC(=O)c1nn(CC(=O)N2[C@H]3C[C@@]4(CNC(=O)C(C)(C)CC=CCOCc5ccc(Br)nc5NC3=O)C[C@@H]24)c2cnc(-c3cnc(C)nc3)cc12` [Compound T-114] it was less than 1000 nM. For `CC(=O)c1nn(CC(=O)N2[C@H]3C[C@@]4(CNC(=O)C(C)(C)CC=CCOCc5ccc(Br)nc5NC3=O)C[C@@H]24)c2ccc(-c3cnc(C)nc3)cc12` [Compound T-115], the IC50 is less than 1000 nM. In the case of `CC(=O)c1nn(CC(=O)N2[C@H]3C[C@@]4(CNC(=O)C(C)(C)CCCOCc5ccc(Br)nc5NC3=O)C[C@@H]24)c2cnc(-c3cnc(C)nc3)cc12` [Compound T-116], the IC50 was less than 1000 nM.

Take `CC(=O)c1nn(CC(=O)N2[C@H]3C[C@@]4(CNC(=O)C(C)(C)CCCCOCc5ccc(Br)nc5NC3=O)C[C@@H]24)c2ccc(-c3cnc(C)nc3)cc12` [Compound T-117]: the IC50 is less than 1000 nM. Regarding `CC(=O)c1nn(CC(=O)N2[C@H]3C[C@@]4(CNC(=O)C(C)(C)CCCCOCc5ccc(Br)nc5NC3=O)C[C@@H]24)c2cnc(-c3cnc(C)nc3)cc12` [Compound T-118], the IC50 was less than 1000 nM.

For `CC(=O)c1nn(CC(=O)N2[C@H]3C[C@@]4(CNC(=O)C(F)(F)CCCCOCc5ccc(Br)nc5NC3=O)C[C@@H]24)c2cnc(-c3cnc(C)nc3)cc12` [Compound T-119], the IC50 was less than 1000 nM. In the case of `CC(=O)c1nn(CC(=O)N2[C@H]3C[C@@]4(CNC(=O)C(F)(F)CCCCOCc5ccc(Br)nc5NC3=O)C[C@@H]24)c2ccc(-c3cnc(C)nc3)cc12` [Compound T-120] it was less than 1000 nM; in that of `CC(=O)c1nn2c3c(cc(-c4cnc(C)nc4)cc13)C(O)C(O)CCCCCN(C)C[C@@]13C[C@@H](C(=O)Nc4nc(Br)ccc4C)N(C(=O)C2)[C@@H]1C3` (stereo partly drawn) [Compound T-121], less than 1000 nM; in that of `CC(=O)c1nn2c3c(cc(-c4cnc(C)nc4)cc13)CCCCCCCN(C)C[C@@]13C[C@@H](C(=O)Nc4nc(Br)ccc4C)N(C(=O)C2)[C@@H]1C3` [Compound T-122], 1000 to 10000 nM. For the compound `CC(=O)c1nn(CC(=O)N2[C@H]3C[C@]4(C[C@@H]24)CN2CCN(CCCOCc4ccc(Br)nc4NC3=O)CC2)c2ccc(-c3cnc(C)nc3)cc12` [Compound T-123], the IC50 is 1000 to 10000 nM. Turning to `CC(=O)c1nn2c3c(cc(-c4cnc(C)nc4)cc13)CCCCCC(=O)N(C)C[C@@]13C[C@@H](C(=O)Nc4nc(C(F)(F)F)ccc4C)N(C(=O)C2)[C@@H]1C3` [Compound T-125], the IC50 is less than 1000 nM. On to `CC(=O)c1nn2c3c(nc(-c4cnc(C)nc4)cc13)C=CCCCC(=O)NC[C@@]13C[C@@H](C(=O)Nc4nc(C(F)(F)F)ccc4C)N(C(=O)C2)[C@@H]1C3` [Compound T-126], for which the IC50 was less than 1000 nM. In the case of `CC(=O)c1nn2c3c(cc(-c4cnc(C)nc4)cc13)CC=CCCCC(=O)NC[C@]1(F)C[C@@H](C(=O)Nc3nc(C(F)(F)F)ccc3C)N(C1)C(=O)C2` [Compound T-127] it was more than 10000 nM; in that of `CC(=O)c1nn2c3c(cc(-c4cnc(C)nc4)cc13)CCCCCCC(=O)NC[C@]1(F)C[C@@H](C(=O)Nc3nc(C(F)(F)F)ccc3C)N(C1)C(=O)C2` [Compound T-128], less than 1000 nM. As for `CC(=O)c1nn2c3c(cc(-c4cnc(C)nc4)cc13)CCCCCC(=O)NC[C@]1(F)C[C@@H](C(=O)Nc3nc(C(F)(F)F)ccc3C)N(C1)C(=O)C2` [Compound T-129], the IC50 fell in the range of 1000 to 10000 nM. Regarding `CC(=O)c1nn(CC(=O)N2[C@H]3C[C@@]4(CNC(=O)C(C)(C)CCCOCc5ccc(Br)nc5NC3=O)C[C@@H]24)c2ccc(-c3cnc(C)nc3)cc12` [Compound T-130], the IC50 was less than 1000 nM.
